In PubChem BioAssay AID248 (DTP/NCI, 2004):
“And” between values parts separate entries of the source, which are not always exact repeats. Identical values can stand only once. Toxic doses and inconclusive results are not listed. Rule as the data show it: active = T/C of 150% or more; inactive = T/C below 125%.

Tested on: L1210 leukemia ip in BDF1 mice, survival T/C
Assay: NCI In Vivo Anticancer Drug Screen. Data for tumor model L1210 Leukemia (intraperitoneal) in B6D2F1 (BDF1) mice
Conditions: endpoint: mean survival time, higher = longer survival
Summary of the method: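 Each compound was tested against a transplantable tumor grown in mice. The endpoint was survival, with treated animals benchmarked against vehicle controls as a simple ratio.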

[1] = dose: 100.0 mg/kg/injection, schedule: Q01DX001 (ip), vehicle: Klucel (hydroxypropylcellulose) (HPC)
[2] = dose: 200.0 mg/kg/injection, schedule: Q01DX001 (ip), vehicle: Klucel (hydroxypropylcellulose) (HPC)
[3] = dose: 100.0 mg/kg/injection, schedule: Q04DX003 (ip), vehicle: acetone
[4] = dose: 200.0 mg/kg/injection, schedule: Q04DX003 (ip), vehicle: acetone
[5] = dose: 100.0 mg/kg/injection, schedule: Q01DX009 (ip), vehicle: Klucel (hydroxypropylcellulose) (HPC)
[6] = dose: 100.0 mg/kg/injection, schedule: Q04DX003 (ip), vehicle: saline
[7] = dose: 200.0 mg/kg/injection, schedule: Q01DX009 (ip), vehicle: Klucel (hydroxypropylcellulose) (HPC)
[8] = dose: 200.0 mg/kg/injection, schedule: Q04DX003 (ip), vehicle: saline
[9] = dose: 400.0 mg/kg/injection, schedule: Q01DX009 (ip), vehicle: Klucel (hydroxypropylcellulose) (HPC)
[10] = dose: 400.0 mg/kg/injection, schedule: Q04DX003 (ip), vehicle: saline
[11] = dose: 100.0 mg/kg/injection, schedule: Q04DX003 (ip), vehicle: saline with Tween-80
[12] = dose: 200.0 mg/kg/injection, schedule: Q04DX003 (ip), vehicle: saline with Tween-80
[13] = dose: 400.0 mg/kg/injection, schedule: Q04DX003 (ip), vehicle: saline with Tween-80
[14] = dose: 100.0 mg/kg/injection, schedule: Q04DX003 (ip), vehicle: Klucel (hydroxypropylcellulose) (HPC)
[15] = dose: 200.0 mg/kg/injection, schedule: Q01DX001 (ip), vehicle: carboxymethylcellulose (CMC)
[16] = dose: 400.0 mg/kg/injection, schedule: Q01DX001 (ip), vehicle: carboxymethylcellulose (CMC)
[17] = dose: 100.0 mg/kg/injection, schedule: Q01DX001 (ip), vehicle: carboxymethylcellulose (CMC)
[18] = dose: 100.0 mg/kg/injection, schedule: Q04DX002 (ip), vehicle: saline with Tween-80
[19] = dose: 200.0 mg/kg/injection, schedule: Q04DX002 (ip), vehicle: saline with Tween-80
[20] = dose: 100.0 mg/kg/injection, schedule: Q01DX009 (ip), vehicle: saline with Tween-80

Measured: T/C

O=C1NC(=O)N(c2ccccc2)C(=O)/C1=C/c1ccccc1
inactive: [1] 90 % of control | [2] 97 % of control

OCN(CO)c1ccc2c(c1)Cc1cc(F)ccc1-2
inactive: [3] 107 % of control | [4] 98 % of control

Nc1ccc2c(O)c(N=Nc3ccc4c(O)cc(S(=O)(=O)O)cc4c3)c(S(=O)(=O)O)cc2c1
inactive: [5] 100 % of control | [6] 96 % of control | [7] 112 % of control | [8] 100 % of control | [9] 88 % of control | [10] 94 % of control

CCCCSC1=CC(=O)c2ccccc2C1=O
inactive: dose: 12.5 mg/kg/injection, schedule: Q04DX003 (ip), vehicle: Klucel (hydroxypropylcellulose) (HPC) 104 % of control

COc1ccc2c(=O)c3ccccc3oc2c1
inactive: [6] 101 % of control | [8] 101 % of control | [10] 103 % of control

O=Nc1ccc(NO)cc1
inactive: [11] 98 % of control and 100 % of control | [12] 98 % of control and 100 % of control | [13] 108 % of control and 91 % of control

COc1cc([N+](=O)[O-])c(C)cc1Br
inactive: dose: 100.0 mg/kg/injection, schedule: Q01DX001 (ip), vehicle: saline 105 % of control | [3] 98 % of control | dose: 200.0 mg/kg/injection, schedule: Q01DX001 (ip), vehicle: saline 107 % of control | [4] 100 % of control | dose: 400.0 mg/kg/injection, schedule: Q01DX001 (ip), vehicle: saline 107 % of control | dose: 400.0 mg/kg/injection, schedule: Q04DX003 (ip), vehicle: acetone 95 % of control

Cc1c(N)ccc2ccccc12
inactive: dose: 25.0 mg/kg/injection, schedule: Q04DX003 (ip), vehicle: Klucel (hydroxypropylcellulose) (HPC) 94 % of control | dose: 50.0 mg/kg/injection, schedule: Q04DX003 (ip), vehicle: Klucel (hydroxypropylcellulose) (HPC) 91 % of control | dose: 100.0 mg/kg/injection, schedule: Q01DX001 (ip), vehicle: other 103 % of control | [14] 91 % of control | dose: 200.0 mg/kg/injection, schedule: Q01DX001 (ip), vehicle: other 99 % of control | dose: 400.0 mg/kg/injection, schedule: Q01DX001 (ip), vehicle: other 97 % of control

Oc1ccc(C2SC(c3ccc(O)cc3)SC(c3ccc(O)cc3)S2)cc1 (configuration not stated)
inactive: [15] 88 % of control | [16] 88 % of control

CCOC(=O)CCCN(c1ccc(OC)c(OC)c1)S(=O)(=O)c1ccc(C)cc1
inactive: [17] 97 % of control | [15] 105 % of control | [16] 94 % of control

COc1ccc(-n2c(=O)c(N=Nc3ccccc3OC)c(O)n(-c3ccccc3C)c2=S)cc1
inactive: [1] 98 % of control | [2] 101 % of control

CCCOc1cccc(C(=N)N)c1
inactive: dose: 75.0 mg/kg/injection, schedule: Q01DX001 (ip), vehicle: Klucel (hydroxypropylcellulose) (HPC) 97 % of control | dose: 150.0 mg/kg/injection, schedule: Q01DX001 (ip), vehicle: Klucel (hydroxypropylcellulose) (HPC) 96 % of control | dose: 300.0 mg/kg/injection, schedule: Q01DX001 (ip), vehicle: Klucel (hydroxypropylcellulose) (HPC) 96 % of control

COc1ccc(C2=CCCC2)cc1
inactive: [17] 91 % of control | [5] 89 % of control | [14] 96 % of control | [15] 94 % of control | [7] 102 % of control | dose: 200.0 mg/kg/injection, schedule: Q04DX003 (ip), vehicle: Klucel (hydroxypropylcellulose) (HPC) 101 % of control | [16] 96 % of control | [9] 89 % of control | dose: 400.0 mg/kg/injection, schedule: Q04DX003 (ip), vehicle: Klucel (hydroxypropylcellulose) (HPC) 102 % of control

O=C(O)c1cccc([N+](=O)[O-])c1Br
inactive: [5] 94 % of control | [7] 100 % of control | [9] 91 % of control

O=C1C(Cl)=C(Nc2ccc(Br)cc2)C(=O)C(Cl)=C1Nc1ccc(Br)cc1
inactive: dose: 50.0 mg/kg/injection, schedule: Q01DX001 (ip), vehicle: carboxymethylcellulose (CMC) 92 % of control | [17] 92 % of control | [11] 98 % of control | [15] 86 % of control | [12] 95 % of control | [16] 90 % of control | [13] 103 % of control

C(=N\Nc1nc2ccccc2o1)/c1ccncc1
inactive: [5] 95 % of control | [7] 104 % of control | [9] 104 % of control

CCOc1ccccc1NC(=O)Oc1ccc(SC)c(C)c1
inactive: [18] 113 % of control | [19] 110 % of control | dose: 400.0 mg/kg/injection, schedule: Q04DX002 (ip), vehicle: saline with Tween-80 103 % of control

CCCCCCC1C/C(=C/N(C)C)C(=O)O1 (configuration not stated)
inactive: dose: 100.0 mg/kg/injection, schedule: Q04DX002 (ip), vehicle: Klucel (hydroxypropylcellulose) (HPC) 90 % of control | dose: 200.0 mg/kg/injection, schedule: Q04DX002 (ip), vehicle: Klucel (hydroxypropylcellulose) (HPC) 90 % of control | dose: 400.0 mg/kg/injection, schedule: Q04DX002 (ip), vehicle: Klucel (hydroxypropylcellulose) (HPC) 93 % of control

CC(C)(C)N1CCCC1
inactive: dose: 25.0 mg/kg/injection, schedule: Q01DX009 (ip), vehicle: saline with Tween-80 96 % of control | dose: 50.0 mg/kg/injection, schedule: Q01DX009 (ip), vehicle: saline with Tween-80 91 % of control | [20] 88 % of control

Cc1ccc(CNC2=C(Cl)C(=O)c3ccccc3C2=O)cc1C
inactive: dose: 12.5 mg/kg/injection, schedule: Q04DX002 (ip), vehicle: Klucel (hydroxypropylcellulose) (HPC) 92 % of control | dose: 25.0 mg/kg/injection, schedule: Q04DX002 (ip), vehicle: Klucel (hydroxypropylcellulose) (HPC) 87 % of control

N=C(N)SCC(=O)c1ccc([N+](=O)[O-])cc1
inactive: [18] 88 % of control | [19] 95 % of control

[Cl][Hg][c]1ccc2ccccc2c1
inactive: dose: 6.25 mg/kg/injection, schedule: Q01DX005 (ip), vehicle: saline with Tween-80 104 % of control | dose: 12.5 mg/kg/injection, schedule: Q01DX005 (ip), vehicle: saline with Tween-80 97 % of control | dose: 12.5 mg/kg/injection, schedule: Q01DX009 (ip), vehicle: saline with Tween-80 92 % of control | dose: 25.0 mg/kg/injection, schedule: Q01DX005 (ip), vehicle: saline with Tween-80 104 % of control

OC(c1cc2c3c(c1)CCCN3CCC2)(C(F)(F)F)C(F)(F)F
inactive: [11] 92 % of control | [12] 96 % of control

O=C(O)C1C(c2c3ccc(=O)c(O)c-3oc3c(O)c(O)ccc23)C2(Cl)C(Cl)=C(Cl)C1(Cl)C2(Cl)Cl (configuration not stated)
inactive: dose: 50.0 mg/kg/injection, schedule: Q01DX009 (ip), vehicle: alcohol 92 % of control | dose: 100.0 mg/kg/injection, schedule: Q01DX009 (ip), vehicle: alcohol 92 % of control | dose: 100.0 mg/kg/injection, schedule: Q04DX003 (ip), vehicle: alcohol 100 % of control | dose: 200.0 mg/kg/injection, schedule: Q04DX003 (ip), vehicle: alcohol 95 % of control

CC(=O)OC(CNCC(=O)O)C(Cl)(Cl)Cl (configuration not stated)
inactive: [20] 90 % of control | dose: 200.0 mg/kg/injection, schedule: Q01DX009 (ip), vehicle: saline with Tween-80 95 % of control | dose: 400.0 mg/kg/injection, schedule: Q01DX009 (ip), vehicle: saline with Tween-80 97 % of control
